Laboratory results from patent US5637501A, “Apparatus for automatically testing the antibiotic sensitivity of a paraffinophilic microorganism” (Infectech, Inc., priority 1995, dated 1997).
Where a name gives a salt, the structure may show the parent alone. Read-outs that look alike come from different tables or passages of the source.

Tested on: MAI
Experiment: antibiotic sensitivity (MIC) of MAI strains, paraffin slide culture and microliter assays
Format: cell-based, Mycobacterium avium-intracellulare
Parameters: key: NG: No Growth
From the text: The present invention has met the above-described need. In one embodiment, it provides a method of automatically testing the sensitivity of a paraffinophilic microorganism to different antimicrobial agents, such as antibiotics, and concentrations thereof, by providing a plurality of receptacles, each containing an amount of liquid medium, an antimicrobial agent to be tested and the microorganism to be tested. In each of the receptacles is placed a slide containing a paraffin source. The receptacles are then incubated, after which a light scatter sensing means automatically and sequentially monitors the extent of microorganism growth on the slides. The extent of colony growth is employed to determine which antimicrobial agent in which concentration is effective to resist growth of the microorganism. A preferred light scatter sensing means is a nephelometer.
Referring specifically to FIG. 1, there is shown a preferred embodiment of the present invention usable in a method of automatically testing the sensitivity of a pure culture of a microorganism to different antimicrobial agents and concentrations thereof. In this embodiment, a microorganism, which may have been previously speciated as by the technique taught in U.S. Pat. No. 5,153, 119, has been introduced into a plurality of receptacles, each containing an amount of liquid medium and antimicrobial agent to be tested. A paraffin slide is introduced into each of the receptacles which are subsequently incubated. The receptacles 2-22 (even numbers only) are fixedly secured to an elongated, substantially rigid movable carrier member 26, such that the receptacles 2-22 will be translated therewith in the direction shown by the arrow A. The carrier member 26 may be made of any suitable material, such as aluminum, steel, stainless steel, or resinous plastic, for example. The receptacles 2-22, respectively, contain slides 32-52 (even numbers only). The slides 32-52 are fixedly secured, respectively, within receptacles 2-22 which may test tubes. The slides 32-52 are generally oriented so as to have their elongated direction aligned with the direction of travel of the carrier 26. As the carrier moves in the direction of arrow A, the slides 2-22 will sequentially be positioned in operative relationship to the light scatter sensing means which consists of light source 60, which directs a light beam toward light detector 62. In the preferred embodiment, a beam of visible light from light source 60 will impinge upon slide 32, with the growth of the microorganism thereon producing a corresponding scatter of light which is received by the light receiving sensor 62 and converts the received light into an appropriate output electrical signal which will be delivered to computer means 64. The computer means 64, in turn, provides output to output means 66, which may conveniently be a display, such as a cathode ray tube or a hard copy printer, for example. The degree of light scatter will be related to the extent of microorganism growth with light scatter increasing as growth on the slide increases.
The computer means 64 may be a general purpose digital microprocessor. It may be programmed in a manner readily known to those skilled in the art to sequentially compare the light scatter value of each slide 32-52 with that of a control slide and to provide an output to output means 66, such as a visual screen display or hard copy, with or without prior enhancement, which indicates the difference between the control slide and the specific slides containing the same pure culture of a paraffinophilic microorganism, but exposed to different concentrations of different or the same antimicrobial agents, such an antibiotics. In this manner, there is provided the minimal concentration level of a specific antimicrobial agent that must be used to control growth of the microorganism. Also, the minimum bactericidal concentration may be determined. […]

Q: With `O=C(O)c1cn(C2CC2)c2cc(N3CCNCC3)c(F)cc2c1=O` [ciprofloxacin-HCl] as the compound, how does the “Days to Confluency” value (Exp. Series II, strain 1) read?
A: Its value is 9 days.

Q: And the “Days to Confluency” value (Exp. Series II, strain 2)?
A: The value was 9 days.

Q: And the “Days to Confluency” value (Exp. Series II, strain 3)?
A: The value was “NG”.

Q: What about the MIC (Exp. Series II, strain 3) of the same compound?
A: The MIC was “NG”.

Q: What about the “Days to Confluency” value (Exp. Series II, strain 4) of the same compound?
A: Its value is 10 days.

Q: And the “Days to Confluency” value (Exp. Series II, strain 5)?
A: The value was 9 days.

Q: What about the “Days to Confluency” value (Exp. Series II, strain 6) of the same compound?
A: Its value is 10 days.

Q: And the “Days to Confluency” value (Exp. Series II, strain 7)?
A: The value was 10 days.

Q: And the “Days to Confluency” value (Exp. Series II, strain 8)?
A: The value was 9 days.

Q: And the “Days to Confluency” value (Exp. Series II, strain 9)?
A: The value was 10 days.

Q: What about the “Days to Confluency” value (Exp. Series II, strain 10) of the same compound?
A: Its value is 7 days.

Q: What about the “Days to Confluency” value (Exp. Series II, strain 11) of the same compound?
A: Its value is 7 days.

Q: And the “Days to Confluency” value (Exp. Series II, strain 12)?
A: Its value is 7 days.

Q: And the “Days to Confluency” value (Exp. Series II, strain 13)?
A: Its value is 8 days.

Q: What about the “Days to Confluency” value (Exp. Series II, strain 14) of the same compound?
A: Its value is 7 days.

Q: And the “Days to Confluency” value (Exp. Series II, strain 15)?
A: Its value is 7 days.

Q: What about the “Days to Confluency” value (Exp. Series II, strain 16) of the same compound?
A: Its value is 7 days.

Q: And the “Days to Confluency” value (Exp. Series III, strain 1)?
A: Its value is 7 days.

Q: And the “Days to Confluency” value (Exp. Series III, strain 2)?
A: Its value is 8 days.

Q: And the “Days to Confluency” value (Exp. Series III, strain 3)?
A: The value was 8 days.

Q: What about the “Days to Confluency” value (Exp. Series III, strain 4) of the same compound?
A: Its value is 9 days.

Q: And the “Days to Confluency” value (Exp. Series III, strain 5)?
A: The value was 8 days.

Q: What about the “Days to Confluency” value (Exp. Series III, strain 6) of the same compound?
A: Its value is 9 days.

Q: And the “Days to Confluency” value (Exp. Series III, strain 7)?
A: The value was 8 days.

Q: What about the “Days to Confluency” value (Exp. Series III, strain 8) of the same compound?
A: The value was 8 days.

Q: What about the “Days to Confluency” value (Exp. Series III, strain 9) of the same compound?
A: The value was 8 days.

Q: And the “Days to Confluency” value (Exp. Series III, strain 10)?
A: The value was 6 days.

Q: What about the “Days to Confluency” value (Exp. Series III, strain 11) of the same compound?
A: Its value is 6 days.

Q: And the “Days to Confluency” value (Exp. Series III, strain 12)?
A: The value was 6 days.

Q: What about the “Days to Confluency” value (Exp. Series III, strain 13) of the same compound?
A: Its value is 7 days.

Q: And the “Days to Confluency” value (Exp. Series III, strain 14)?
A: The value was 7 days.

Q: What about the “Days to Confluency” value (Exp. Series III, strain 15) of the same compound?
A: The value was 7 days.

Q: And the “Days to Confluency” value (Exp. Series III, strain 16)?
A: The value was 6 days.

Q: What about the MIC (Mycobacterium avium-intracellulare, Exp. Series II, strain 1, read-out: MIC) of the same compound?
A: Its MIC is 3.6 µg/mL.

Q: And the MIC (Mycobacterium avium-intracellulare, Exp. Series II, strain 2, read-out: MIC)?
A: The MIC was 18.2 µg/mL.

Q: And the MIC (Mycobacterium avium-intracellulare, Exp. Series II, strain 4, read-out: MIC)?
A: The MIC was 3.6 µg/mL.

Q: What about the MIC (Mycobacterium avium-intracellulare, Exp. Series II, strain 5, read-out: MIC) of the same compound?
A: Its MIC is 7.3 µg/mL.

Q: And the MIC (Mycobacterium avium-intracellulare, Exp. Series II, strain 6, read-out: MIC)?
A: Its MIC is 3.6 µg/mL.

Q: And the MIC (Mycobacterium avium-intracellulare, Exp. Series II, strain 7, read-out: MIC)?
A: Its MIC is 3.6 µg/mL.

Q: And the MIC (Mycobacterium avium-intracellulare, Exp. Series II, strain 8, read-out: MIC)?
A: Its MIC is 3.6 µg/mL.

Q: And the MIC (Mycobacterium avium-intracellulare, Exp. Series II, strain 9, read-out: MIC)?
A: Its MIC is 3.6 µg/mL.

Q: What about the MIC (Mycobacterium avium-intracellulare, Exp. Series II, strain 10, read-out: MIC) of the same compound?
A: The MIC was 14.5 µg/mL.

Q: What about the MIC (Mycobacterium avium-intracellulare, Exp. Series II, strain 11, read-out: MIC) of the same compound?
A: The MIC was 7.3 µg/mL.

Q: What about the MIC (Mycobacterium avium-intracellulare, Exp. Series II, strain 12, read-out: MIC) of the same compound?
A: The MIC was 10.9 µg/mL.

Q: What about the MIC (Mycobacterium avium-intracellulare, Exp. Series II, strain 13, read-out: MIC) of the same compound?
A: Its MIC is 18.2 µg/mL.

Q: What about the MIC (Mycobacterium avium-intracellulare, Exp. Series II, strain 14, read-out: MIC) of the same compound?
A: Its MIC is 18.2 µg/mL.

Q: What about the MIC (Mycobacterium avium-intracellulare, Exp. Series II, strain 15, read-out: MIC) of the same compound?
A: Its MIC is 7.3 µg/mL.

Q: What about the MIC (Mycobacterium avium-intracellulare, Exp. Series II, strain 16, read-out: MIC) of the same compound?
A: The MIC was 7.3 µg/mL.

Q: What about the MIC (Mycobacterium avium-intracellulare, Exp. Series III, strain 1, read-out: MIC) of the same compound?
A: Its MIC is 3.6 µg/mL.

Q: What about the MIC (Mycobacterium avium-intracellulare, Exp. Series III, strain 2, read-out: MIC) of the same compound?
A: The MIC was 14.5 µg/mL.

Q: And the MIC (Mycobacterium avium-intracellulare, Exp. Series III, strain 3, read-out: MIC)?
A: Its MIC is 3.6 µg/mL.

Q: And the MIC (Mycobacterium avium-intracellulare, Exp. Series III, strain 4, read-out: MIC)?
A: Its MIC is 3.6 µg/mL.

Q: And the MIC (Mycobacterium avium-intracellulare, Exp. Series III, strain 5, read-out: MIC)?
A: The MIC was 7.3 µg/mL.

Q: What about the MIC (Mycobacterium avium-intracellulare, Exp. Series III, strain 6, read-out: MIC) of the same compound?
A: The MIC was 7.3 µg/mL.

Q: And the MIC (Mycobacterium avium-intracellulare, Exp. Series III, strain 7, read-out: MIC)?
A: Its MIC is 7.3 µg/mL.

Q: And the MIC (Mycobacterium avium-intracellulare, Exp. Series III, strain 8, read-out: MIC)?
A: Its MIC is 3.6 µg/mL.

Q: What about the MIC (Mycobacterium avium-intracellulare, Exp. Series III, strain 9, read-out: MIC) of the same compound?
A: Its MIC is 3.6 µg/mL.

Q: And the MIC (Mycobacterium avium-intracellulare, Exp. Series III, strain 10, read-out: MIC)?
A: Its MIC is 14.5 µg/mL.

Q: What about the MIC (Mycobacterium avium-intracellulare, Exp. Series III, strain 11, read-out: MIC) of the same compound?
A: Its MIC is 7.3 µg/mL.

Q: What about the MIC (Mycobacterium avium-intracellulare, Exp. Series III, strain 12, read-out: MIC) of the same compound?
A: Its MIC is 7.3 µg/mL.

Q: What about the MIC (Mycobacterium avium-intracellulare, Exp. Series III, strain 13, read-out: MIC) of the same compound?
A: Its MIC is > 18.2 µg/mL.

Q: And the MIC (Mycobacterium avium-intracellulare, Exp. Series III, strain 14, read-out: MIC)?
A: Its MIC is 14.5 µg/mL.

Q: What about the MIC (Mycobacterium avium-intracellulare, Exp. Series III, strain 15, read-out: MIC) of the same compound?
A: The MIC was 7.3 µg/mL.

Q: What about the MIC (Mycobacterium avium-intracellulare, Exp. Series III, strain 16, read-out: MIC) of the same compound?
A: The MIC was 3.6 µg/mL.
